Data: article PMC4646457 (PLoS ONE, 2015)
pIC50: −log10 of the molar value. Converted amounts (≈) assume the structure as drawn. Like-named read-outs stand apart in the source and are kept apart here.

Assays:
[1] = test system: HER2+ human breast cancer cell lines; set-up: method as in PMID 12467226; settings: in vitro proliferative growth, cited from earlier work
[2] = set-up: method as in EGF10027 protocol, CIB RM2000/00481/06; settings: pregnant rats or rabbits, period of major organogenesis; ref EGF10027 protocol, CIB RM2000/00481/06; cited from earlier work
HER2 = settings: read-out: IC50 for HER2; stated as target binding affinity, ref not given; cited from earlier work
[3] = rats; ref EGF10027 protocol, CIB RM2000/00481/06; cited from earlier work
EGFR = settings: read-out: IC50 for EGFR; stated as target binding affinity, ref not given; cited from earlier work
in vivo = settings: female, CB-17 SCID, mouse; for MRT last: MRTlast
efflux transporter ABCB1 = settings: read-out: IC50 for inhibition of the efflux transporter ABCB1; cited from earlier work
plasma albumin = test system: plasma albumin; set-up: method as in printed; settings: ref not given; cited from earlier work
[4] = set-up: method as in EGF10027 protocol, CIB RM2000/00481/06; settings: oral, male beagle dogs; ref EGF10027 protocol, CIB RM2000/00481/06; cited from earlier work
[5] = test system: isolated canine cardiac Purkinje fibers; set-up: method as in EGF10027 protocol, CIB RM2000/00481/06; settings: ref EGF10027 protocol, CIB RM2000/00481/06; cited from earlier work
[6] = mice; ref EGF10027 protocol, CIB RM2000/00481/06; cited from earlier work
[7] = set-up: method as in RM2005/00018/00 (Study EGF20008); settings: single agent, heavily pre-treated population; ref RM2005/00018/00 (Study EGF20008); cited from earlier work
HER3 = test: Quantitative IHC of phosphorylated HER3 in patient tumor (EGF10027); type: in vivo, human; settings: for p-HER3 post-treatment OD: plasma […]
[8] = BT474 tumor, po, 100 mg/kg, 100 mg/kg BID, multiple doses
[9] = BT474 tumor, po, 100 mg/kg, single dose
[10] = BT474 tumor, po, 200 mg/kg, 200 mg/kg QD, multiple doses
[11] = BT474 tumor, po, 200 mg/kg, single dose
[12] = blood, oral, 100 mg/kg, individual animals 1-3, blood, 100 mg/kg BID
[13] = blood, po, 100 mg/kg, 100 mg/kg BID, multiple doses
[14] = blood, po, 100 mg/kg, single dose
[15] = blood, po, 200 mg/kg, 200 mg/kg QD, multiple doses
[16] = blood, po, 200 mg/kg, single dose
[17] = kidney, oral, 100 mg/kg, single dose
[18] = kidney, oral, 100 mg/kg, individual animals 1-3, kidney, 100 mg/kg BID
[19] = kidney, oral, 200 mg/kg, single dose
[20] = kidney, oral, 200 mg/kg, individual animals 1-3, kidney, 200 mg/kg QD
[21] = kidney, po, 100 mg/kg, 100 mg/kg BID, multiple doses
[22] = kidney, po, 200 mg/kg, 200 mg/kg QD, multiple doses
[23] = liver, oral, 100 mg/kg, single dose
[24] = liver, oral, 100 mg/kg, individual animals 1-3, liver, 100 mg/kg BID
[25] = liver, oral, 200 mg/kg, single dose
[26] = liver, oral, 200 mg/kg, individual animals 1-3, liver, 200 mg/kg QD
[27] = liver, po, 100 mg/kg, 100 mg/kg BID, multiple doses
[28] = liver, po, 200 mg/kg, 200 mg/kg QD, multiple doses
[29] = tumor, oral, 100 mg/kg, individual animals 1-3, tumor, 100 mg/kg BID
[30] = tumor, oral, 200 mg/kg, individual animals 1-3, tumor, 200 mg/kg QD

CS(=O)(=O)CCNCc1ccc(-c2ccc3ncnc(Nc4ccc(OCc5cccc(F)c5)c(Cl)c4)c3c2)o1 [lapatinib]
IC90 in multiple HER2+ human breast cancer cell lines [1]: ~0.5 µg/mL (≈ 0.86 µM)
IC90 ([1]; read-out: IC90 in multiple HER2+ human breast cancer cell lines): ~900 nM
fetal malformations [2]: No fetal malform ations
pIC50 (HER2): 7.60
single intravenous dose with no deaths [3]: ≤ 21 mg/kg
single oral dose with no deaths [3]: up to 2,000 mg/kg
concentration at 96 h (in vivo; BT474 tumor, oral, 200 mg/kg, individual animals 1-3, tumor, 200 mg/kg QD): 915 ng/mL
AUC(0-t) (in vivo; BT474 tumor, po, 100 mg/kg, AUClast, 100 mg/kg BID, multiple doses): 1120 µg·h/mL
AUC(0-t) (in vivo; BT474 tumor, po, 100 mg/kg, AUClast, single dose): 313 µg·h/mL
Cmax (in vivo; [8]): 55800 ng/mL
Cmax (in vivo; [9]): 24900 ng/mL
MRT last (in vivo; [8]): 20.5 h
MRT last (in vivo; [9]): 12.6 h
Tmax (in vivo; [8]): 4 h
Tmax (in vivo; [9]): 12 h
AUC(0-t) (in vivo; BT474 tumor, po, 200 mg/kg, AUClast, 200 mg/kg QD, multiple doses): 1320 µg·h/mL
AUC(0-t) (in vivo; BT474 tumor, po, 200 mg/kg, AUClast, single dose): 579 µg·h/mL
Cmax (in vivo; [10]): 79200 ng/mL
Cmax (in vivo; [11]): 44000 ng/mL
MRT last (in vivo; [10]): 18.7 h
MRT last (in vivo; [11]): 17.5 h
Tmax (in vivo; [10]): 10 h
Tmax (in vivo; [11]): 1 h
half-life (in vivo; blood, liver, kidney, tumor, oral, 100 mg/kg): 4 h
concentration at 10 h (in vivo; [12]): 3080 ng/mL
concentration at 24 h (in vivo; [12]): 95.2 ng/mL
concentration at 24 h (in vivo; blood, oral, 200 mg/kg, individual animals 1-3, blood, 200 mg/kg QD): 28 ng/mL
AUC(0-t) (in vivo; blood, po, 100 mg/kg, AUClast, 100 mg/kg BID, multiple doses): 102 µg·h/mL
AUC(0-t) (in vivo; blood, po, 100 mg/kg, AUClast, single dose): 46.7 µg·h/mL
Cmax (in vivo; [13]): 9350 ng/mL
Cmax (in vivo; [14]): 7040 ng/mL
MRT last (in vivo; [13]): 6.9 h
MRT last (in vivo; [14]): 6.3 h
Tmax (in vivo; [13]): 1 h
Tmax (in vivo; [14]): 1 h
AUC(0-t) (in vivo; blood, po, 200 mg/kg, AUClast, 200 mg/kg QD, multiple doses): 152 µg·h/mL
AUC(0-t) (in vivo; blood, po, 200 mg/kg, AUClast, single dose): 88.2 µg·h/mL
Cmax (in vivo; [15]): 16100 ng/mL
Cmax (in vivo; [16]): 8220 ng/mL
MRT last (in vivo; [15]): 7.3 h
MRT last (in vivo; [16]): 8.5 h
Tmax (in vivo; [15]): 10 h
Tmax (in vivo; [16]): 12 h
AUC(0-t) (in vivo; kidney, oral, 100 mg/kg, AUClast, single dose): 267 µg·h/mL
Cmax (in vivo; [17]): 29800 ng/mL
concentration at 1 h (in vivo; [18]): 57200 ng/mL
concentration at 4 h (in vivo; [18]): 72300 ng/mL
concentration at 48 h (in vivo; [18]): 114 ng/mL
concentration at 72 h (in vivo; [18]): 94.5 ng/mL
concentration at 96 h (in vivo; [18]): 47.9 ng/mL
MRT last (in vivo; [17]): 7.7 h
Tmax (in vivo; [17]): 1 h
AUC(0-t) (in vivo; kidney, oral, 200 mg/kg, AUClast, single dose): 633 µg·h/mL
Cmax (in vivo; [19]): 64900 ng/mL
concentration at 1 h (in vivo; [20]): 48300 ng/mL
concentration at 24 h (in vivo; [20]): 144 ng/mL
concentration at 72 h (in vivo; [20]): 77.3 ng/mL
concentration at 96 h (in vivo; [20]): 49.9 ng/mL
MRT last (in vivo; [19]): 9 h
Tmax (in vivo; [19]): 12 h
AUC(0-t) (in vivo; kidney, po, 100 mg/kg, AUClast, 100 mg/kg BID, multiple doses): 1170 µg·h/mL
Cmax (in vivo; [21]): 98500 ng/mL
MRT last (in vivo; [21]): 8.4 h
Tmax (in vivo; [21]): 10 h
AUC(0-t) (in vivo; kidney, po, 200 mg/kg, AUClast, 200 mg/kg QD, multiple doses): 1320 µg·h/mL
Cmax (in vivo; [22]): 136000 ng/mL
MRT last (in vivo; [22]): 8 h
Tmax (in vivo; [22]): 10 h
AUC(0-t) (in vivo; liver, oral, 100 mg/kg, AUClast, single dose): 414 µg·h/mL
Cmax (in vivo; [23]): 46700 ng/mL
concentration at 1 h (in vivo; [24]): 107000 ng/mL
concentration at 4 h (in vivo; [24]): 90700 ng/mL
concentration at 48 h (in vivo; [24]): 193 ng/mL
concentration at 72 h (in vivo; [24]): 121 ng/mL
concentration at 96 h (in vivo; [24]): 66.9 ng/mL
MRT last (in vivo; [23]): 7.5 h
Tmax (in vivo; [23]): 1 h
AUC(0-t) (in vivo; liver, oral, 200 mg/kg, AUClast, single dose): 1050 µg·h/mL
Cmax (in vivo; [25]): 110000 ng/mL
concentration at 1 h (in vivo; [26]): 137000 ng/mL
concentration at 4 h (in vivo; [26]): 223000 ng/mL
concentration at 48 h (in vivo; [26]): 173 ng/mL
concentration at 72 h (in vivo; [26]): 101 ng/mL
concentration at 96 h (in vivo; [26]): 98.3 ng/mL
MRT last (in vivo; [25]): 9.4 h
Tmax (in vivo; [25]): 12 h
AUC(0-t) (in vivo; liver, po, 100 mg/kg, AUClast, 100 mg/kg BID, multiple doses): 1380 µg·h/mL
Cmax (in vivo; [27]): 119000 ng/mL
MRT last (in vivo; [27]): 8 h
Tmax (in vivo; [27]): 10 h
AUC(0-t) (in vivo; liver, po, 200 mg/kg, AUClast, 200 mg/kg QD, multiple doses): 2110 µg·h/mL
Cmax (in vivo; [28]): 240000 ng/mL
MRT last (in vivo; [28]): 8.4 h
Tmax (in vivo; [28]): 10 h
half-life (in vivo; tumor, oral): 15.6 h
concentration at 4 h (in vivo; [29]): 51400 ng/mL
concentration at 10 h (in vivo; [29]): 59200 ng/mL
concentration at 4 h (in vivo; [30]): 47400 ng/mL
concentration at 10 h (in vivo; [30]): 71800 ng/mL
AUC(0-t) (in vivo; tumor, po, 100 mg/kg, AUC 0–12, tumor, median (range), n = 3, after fifth dose of 100 mg/kg BID): 396 µM·h
AUC(0-t) (in vivo; tumor, po, 200 mg/kg, AUC 0–24, tumor, median (range), n = 3, after third dose of 200 mg/kg QD): 1950 µM·h
half-life (in vivo; whole blood, oral): 3.9 h
AUC(0-t) (in vivo; whole blood, po, 100 mg/kg, AUC 0–12, blood, median (range), n = 3, after fifth dose of 100 mg/kg BID): 104 µM·h
AUC(0-t) (in vivo; whole blood, po, 200 mg/kg, AUC 0–24, blood, median (range), n = 3, after third dose of 200 mg/kg QD): 739 µM·h
pIC50 (efflux transporter ABCB1): 5.40
binding to plasma albumin (plasma albumin): > 99%
overall recovery of radioactivity (nearly quantitative in feces) [4]: 89.9%
single intravenous dose with no deaths [6]: up to 46 mg/kg
single oral dose with no deaths [6]: up to 2,000 mg/kg
clinical benefit response rate [7]: 6%
p-HER3 post-treatment OD, mean (HER3; mean of listed subjects): 10.40 OD
HER3 phosphorylation in tumor (HER3; one patient with ABCB1 SNP C3435T, plasma 1 μM, tumor 9 μM): complete inhibition
p-HER3 post-treatment OD (HER3; subject 5, tumor 25.60 µM): 16 OD
p-HER3 post-treatment OD (HER3; subject 124, tumor 56.02 µM): 7 OD
p-HER3 post-treatment OD (HER3; subject 801, tumor 1.98 µM): 14 OD
p-HER3 post-treatment OD (HER3; subject 803, tumor 2.08 µM): 5 OD
p-HER3 post-treatment OD (HER3; subject 804, tumor 7.90 µM): 11 OD
p-HER3 post-treatment OD (HER3; subject 1401, tumor 1.02 µM): 3 OD
p-HER3 post-treatment OD (HER3; subject 1405, tumor 12.76 µM): 18 OD
